PMC7714403 (JCI Insight, 2020)
pIC50: −log10 of the molar value. Read-outs that look alike come from different tables or passages of the source.

Legend:
Ba/F3 cells GFP+IL3 = assay: MTT viability assay; assay type: cell-based; details: Mus musculus, read-out: IC50 viability
Experimental: (§1) Drug treatments were carried out for 72 hours. Details are provided in the Supplemental Methods.

[1] = test system: Ba/F3 cells expressing FLT3 ITD/D835H; assay: MTT viability assay; assay type: cell-based; details: Mus musculus, read-out: IC50 viability
Experimental: as §1

[2] = test system: human primary AML samples; assay: CellTiterGlo viability assay, ex vivo; assay type: cell-based
Experimental: as §1
(§2) Cell viability of primary samples […]
For murine or human primary AML cells, 100,000 cells/well were plated in a 96-well plate and treated with increasing concentrations of drug. Cell viability, via trypan blue, was measured every 24 hours. If the viability fell below 50% or at 72 hours of treatment, whichever came earlier, cell viability of each plate was measured via CellTiter-Glo. Primary human AML cells were obtained from the OSUCCC Leukemia Tissue Bank Shared […]
Primary AML samples were analyzed by targeted gene sequencing of 80 genes, as previously described (1). Samples were pooled and analyzed on a MiSeq system using the Illuminia MiSeq Reagent Kit v3. Ill umina Isis Banded Smith Waterman aligner and hg19 genome were used to align the sequences. Single nucleotide variant (SNV) and indel calling were performed using MuTect and Varscan2. A variant allele fraction (VAF) cut-off of 0.10 was set for reporting mutations. SNV that are reported as pathogenic SNP were considered mutations.
All other SNV needed to be absent from 1000 Genome database, dsSNP137 or dsSNP142. Visual inspection of all variants was carried out using Integrative Genomics Viewer (Broad Institute) . […]

MOLM13 cells [3] = assay: MOLM13 viability ± coculture with HS5-GFP MSCs (MTT); assay type: cell-based; details: Homo sapiens
Experimental: Drug treatments were carried out for 72 hours. Details are provided in the Supplemental Methods. […]
HS5-GFP human bone marrow stromal cells were plated and cultured for 72 hours to near confluence.
MOLM13 cells were then seeded onto HS5-GFP cells to establish a co-culture. Twenty-four hours later, cells
were treated with increasing concentrations of drug for an additional 72 hours. MOLM13 and HS5-GFP cells
were then separated and MTT assay s were performed for cell viability assessment of each cell population. […]

MV4-11 cells [4] = assay: CFU assay with IL-3, GM-CSF or FGF2; assay type: cell-based, human; details: 7-day MV4-11 CFU assay
Experimental: For human primary CFU assays, cells were cultured in MethoCult H4035 Optimum without EPO (Stemcell Technologies). For mouse primary CFU assays, cells were directly cultured in MethoCult M3231 (Stemcell Technologies) supplemented with 45 ng/mL of murine IL-6 (mIL-6), mIL-3, and mSCF. Both human and mouse primary cells 10,000 cells were plated in duplicate for each drug concentration. For cell line CFU assays, MV4-11 cells were treated with drugs in the presence of 20 ng/mL IL-3, GM-CSF, or FGF2. Cells were plated in MethoCult H4230 (Stemcell Technologies) in duplicates at 250 cells/plate. Plates were placed in a 37°C incubator for 7 or 14 days for human cell lines and for mouse or human primary cells, respectively. Colonies were identified as clusters containing 40 or more cells. For CFU assays using human primary CD34^+ cells, umbilical cord blood was obtained from the OSU Comprehensive Cancer Center (CCC) Leukemia Tissue Bank Shared Resource, and mononuclear cells were isolated by using density gradient centrifugation. CD34^+ cells were purified using the CD34 UltraPure MicroBead Kit (Miltenyi Biotec) according to the manufacturer’s instructions. CFU assay with CD34^+ cells was performed as described above, and the total number of colonies were counted after 7–10 days.

MOLM13 cells [5] = assay: MOLM13 viability ± cytokines (MTT); details: Homo sapiens
Experimental: Drug treatment effects on cell lines were assessed by MTT assay (Roche Diagnostics), as previously described ([21]). […] Drug treatments were carried out for 72 hours.

MOLM13 cells [6] = assay: MTT viability assay; assay type: cell-based; details: Homo sapiens, read-out: IC50 viability
Experimental: as §1

MOLM13-RES cells = assay: MTT viability assay; assay type: cell-based; details: Homo sapiens, read-out: IC50 viability
Experimental: as §1

MV4-11 cells [7] = assay: MTT viability assay; assay type: cell-based; details: Homo sapiens, read-out: IC50 viability
Experimental: as §1

[8] = test system: Ba/F3 cells expressing FLT3 D835H; assay: MTT viability assay; assay type: cell-based; details: Mus musculus, read-out: IC50 viability
Experimental: as §1

[9] = test system: Ba/F3 cells expressing FLT3 D835Y; assay: MTT viability assay; assay type: cell-based; details: Mus musculus, read-out: IC50 viability
Experimental: as §1

[10] = test system: Ba/F3 cells expressing FLT3 ITD/D835Y; assay: MTT viability assay; assay type: cell-based; details: Mus musculus, read-out: IC50 viability
Experimental: as §1

[11] = test system: Ba/F3 cells expressing FLT3-ITD/F691L; assay: MTT viability assay; assay type: cell-based; details: Mus musculus, BaF3, 72 hours
Experimental: as §1

[12] = test system: Ba/F3 cells expressing FLT3-ITD; assay: MTT viability assay; assay type: cell-based; details: Mus musculus, read-out: IC50 viability
Experimental: as §1

[13] = test system: primary FLT3-ITD/IDH2-R140Q murine leukemia cells; assay: CellTiterGlo viability assay, ex vivo; assay type: cell-based; details: Mus musculus, 72 hours
Experimental: as §1, §2
For murine or human primary AML cells, 100,000 cells/well were plated in a 96-well plate and treated with increasing concentrations of drug. Cell viability, via trypan blue, was measured every 24 hours. If the viability fell below 50% or at 72 hours of treatment, whichever came earlier, cell viability of each plate was measured via

[14] = BaF3, Ba/F3 GFP+IL3, MTT, 72 hours
[15] = BaF3, Ba/F3 FLT3 ITD/D835H, MTT, 72 hours
[16] = MOLM-13, MOLM13 + HS5-GFP co-culture, read-out: IC50 viability
[17] = BaF3, Ba/F3 FLT3 D835H, MTT, 72 hours
[18] = BaF3, Ba/F3 FLT3 D835Y, MTT, 72 hours
[19] = BaF3, Ba/F3 FLT3 ITD/D835Y, MTT, 72 hours
[20] = BaF3, Ba/F3 FLT3 ITD, MTT, 72 hours
[21] = MOLM-13, MOLM13, FLT3-ITD, MTT, 72 hours
[22] = MOLM13-RES, FLT3-ITD/D835Y, MTT, 72 hours
[23] = MV4-11, FLT3-ITD, MTT, 72 hours
[24] = sample 240: FLT3-ITD, IDH2, NPM1, read-out: IC50 viability
[25] = sample 370: FLT3-ITD, IDH1, NPM1, SMARCA2, read-out: IC50 viability
[26] = sample 0762 (762): FLT3-ITD, NRAS, KRAS, DNMT3A, NPM1, D835E, read-out: IC50 viability
[27] = sample 1069: FLT3-ITD, SRSF2, IDH2, DNMT3A, read-out: IC50 viability
[28] = sample 1355: FLT3-ITD, NPM1, IDH2, read-out: IC50 viability
[29] = MOLM-13, MOLM13 alone (co-culture experiment), read-out: IC50 viability

| Compound | pIC50 (Ba/F3 cells GFP+IL3; [14]) | pIC50 [1, 15] | pIC50 (MOLM13 cells [3]; [16]) | pIC50 [11] | pIC50 [8, 17] | pIC50 [9, 18] | pIC50 [10, 19] | pIC50 [12, 20] | pIC50 (MOLM13 cells [6]; [21]) | pIC50 (MOLM13-RES cells; [22]) | pIC50 (MV4-11 cells [7]; [23]) | pIC50 [13] | pIC50 (MOLM13 cells [3]; [29]) | pIC50 (Ba/F3 cells GFP+IL3; BaF3, 72 h) | pIC50 [2, 24] | pIC50 [2, 25] | pIC50 [2, 26] | pIC50 [2, 27] | pIC50 [2, 28] | further results |
| --- | --- | --- | --- | --- | --- | --- | --- | --- | --- | --- | --- | --- | --- | --- | --- | --- | --- | --- | --- | --- |
| CO[C@@H]1[C@H](N(C)C(=O)c2ccccc2)C[C@H]2O[C@]1(C)n1c3ccccc3c3c4c(c5c6ccccc6n2c5c31)C(=O)NC4 [Midostaurin, midostaurin] | 6.48 | 7.55 | 7.00 | – | – | – | – | – | – | – | – | – | – | – | – | – | – | – | – | pIC50 ([2]; sample 036: FLT3 wild-type, NRAS, IDH2, NPM1, DNMT3A, read-out: IC50 viability): 6.48; Colony formation with IL-3, GM-CSF, or FGF2 (MV4-11 cells [4]): fully or partially rescued; pIC50 (MOLM13 cells [5]; MOLM-13, read-out: IC50 viability, MOLM13 + GM-CSF): 7.32; pIC50 (MOLM13 cells [5]; MOLM-13, read-out: IC50 viability, MOLM13, no cytokine): 7.72 |
| CC(C)(C)c1cc(NC(=O)Nc2ccc(-c3cn4c(n3)sc3cc(OCCN5CCOCC5)ccc34)cc2)no1 [Quizartinib, quizartinib] | – | – | – | – | – | – | – | – | – | – | – | – | – | < 5.00 | – | – | – | – | – | pIC50 (MOLM13 cells [6]; MOLM-13, 72 h): 8.60; pIC50 (MOLM13-RES cells; 72 h): 6.40; pIC50 (MV4-11 cells [7]; MV4-11, 72 h): 8.77; pIC50 ([2]; read-out: IC50 viability, sample 240: FLT3-ITD, IDH2, NPM1): 6.62; pIC50 ([2]; read-out: IC50 viability, sample 370: FLT3-ITD, IDH1, NPM1, SMARCA2): 6.43; pIC50 ([2]; read-out: IC50 viability, sample 0762 (762): FLT3-ITD, NRAS, KRAS, DNMT3A, NPM1, D835E): 6.45; pIC50 ([2]; read-out: IC50 viability, sample 1069: FLT3-ITD, SRSF2, IDH2, DNMT3A): 6.71; pIC50 ([2]; read-out: IC50 viability, sample 1355: FLT3-ITD, NPM1, IDH2): 6.40; pIC50 (MOLM13 cells [3]; MOLM-13, read-out: IC50 viability, MOLM13 + HS5-GFP co-culture): 8.33 |
| Cc1ccc(C(=O)Nc2ccc(CN3CCN(C)CC3)c(C(F)(F)F)c2)cc1C#Cc1cnc2cccnn12 [Ponatinib, ponatinib] | – | – | – | 7.38 | – | – | – | – | – | – | – | – | – | 6.04 | – | – | – | – | – | pIC50 ([8]; BaF3, 72 h): 7.05; pIC50 ([9]; BaF3, 72 h): 6.80; pIC50 ([1]; BaF3, 72 h): 6.90; pIC50 ([10]; BaF3, 72 h): 6.97; pIC50 ([12]; BaF3, 72 h): 8.55 |

The next lines start with results.

| pIC50 (Ba/F3 cells GFP+IL3; [14]) | pIC50 [1, 15] | pIC50 (MOLM13 cells [3]; [16]) | pIC50 [11] | pIC50 [8, 17] | pIC50 [9, 18] | pIC50 [10, 19] | pIC50 [12, 20] | pIC50 (MOLM13 cells [6]; [21]) | pIC50 (MOLM13-RES cells; [22]) | pIC50 (MV4-11 cells [7]; [23]) | pIC50 [13] | pIC50 (MOLM13 cells [3]; [29]) | Compound | pIC50 (Ba/F3 cells GFP+IL3; BaF3, 72 h) | pIC50 [2, 24] | pIC50 [2, 25] | pIC50 [2, 26] | pIC50 [2, 27] | pIC50 [2, 28] | further results |
| --- | --- | --- | --- | --- | --- | --- | --- | --- | --- | --- | --- | --- | --- | --- | --- | --- | --- | --- | --- | --- |
| 6.11 | 7.42 | 7.70 | 7.24 | 9.57 | 10.17 | 7.46 | 8.74 | 8.13 | 7.96 | 8.18 | 5.51 | 8.30 | CC1(COc2ccc3c(c2)ncn3-c2ccc3cccc(N4CCC(N)CC4)c3n2)COC1 [Crenolanib, crenolanib] | – | 7.05 | 6.72 | 6.26 | 6.31 | 6.52 | – |
| 5.41 | 6.33 | 7.15 | 5.87 | 7.12 | 6.63 | 5.48 | 8.85 | 7.59 | 5.75 | 8.10 | < 5.00 | 7.85 | CNC(=O)c1cc(Oc2ccc(NC(=O)Nc3ccc(Cl)c(C(F)(F)F)c3)cc2)ccn1 [Sorafenib, sorafenib] | – | 5.83 | 5.99 | 6.71 | 6.45 | 5.45 | pIC50 ([2]; sample 774: FLT3-ITD, CBL, IDH1, NPM1, read-out: IC50 viability): 6.18 |
